This assay relates to TNF-α. As to the kind of experiment: Cell-based TNF-α inhibition assay (LPS-induced PBMCs, Meso Scale). As to conditions: PBMC, PBMCs pretreated 1 h, LPS 100 ng/mL 18-24 h, percentage of stimulated DMSO control; for inhibition at 0.1 µM: compound concentration 0.1 μM; for inhibition at 1 µM: compound concentration 1 μM. The procedure:
Example B1. Cell-Based TNF-α Inhibition Assay
Frozen primary blood mononuclear cells (PBMCs) were quick thawed, washed once with RPMI 1640 media supplemented with 10% fetal bovine serum, 1% penicillin, and 1% streptomycin, and plated in a 96 well plate at 200,000 cells per well. The cells were pretreated with DMSO only as a control or a compound for 1 h, and then induced with LPS (lipopolysaccharide) (100 ng/mL) for 18-24 h. The supernatant was analyzed for TNF-α using the Meso Scale assay. Compound activity was determined as a percentage of the stimulated DMSO control. The results are summarized in Table 1, where A represents a percent inhibition value ≥60%; B represents a percent inhibition value <60% and ≥40%; C represents a percent inhibition value <40% and ≥20%; and D represents a single percent inhibition value <20%.

For the molecule `CCOc1cc([C@@H](CS(C)(=O)=O)N2C(=O)c3cccc(OCCCCCCCCCNCc4ccc(OCc5scc6c5CN(C5CCC(=O)NC5=O)C6=O)cc4)c3C2=O)ccc1OC` (stereo partly drawn) [Compound A50, 4-[(9-{[(4-{[5-(2,6-Dioxopiperidin-3-yl)-4-oxo-4H,5H,6H-thieno[3,4-c]pyrrol-1-yl]methoxy}phenyl)methyl]amino}nonyl)oxy]-2-[(1S)-1-(3-ethoxy-4-methoxyphenyl)-2-methane-sulfonylethyl]-2,3-dihydro-1H-isoindole-1,3-dione], the inhibition – broadly, the percentage by which the read-out fell short of the control – at 0.1 µM is at least 60% and the inhibition at 1 µM was at least 60%. For `CCOc1cc([C@@H](CS(C)(=O)=O)N2C(=O)c3c(CCCCCCCCCCCCN4CCC(c5cc(F)cc6c5CN(C5CCC(=O)NC5=O)C6=O)CC4)ccc(NC(C)=O)c3C2=O)ccc1OC` (stereo partly drawn) [Compound A17, N-[7-(12-{4-[2-(2,6-Dioxopiperidin-3-yl)-6-fluoro-1-oxo-2,3-dihydro-1H-isoindol-4-yl]piperidin-1-yl}dodecyl)-2-[(1S)-1-(3-ethoxy-4-methoxyphenyl)-2-methanesulfonylethyl]-1,3-dioxo-2,3-dihydro-1H-isoindol-4-yl]acetamide], the inhibition at 0.1 µM is at least 60% and the inhibition at 1 µM was at least 60%. For `CCOc1cc([C@@H](CS(C)(=O)=O)N2C(=O)c3cccc(NC(=O)CCCCCCCCCCOc4cc(-c5scnc5C)ccc4CNC(=O)[C@@H]4C[C@@H](O)CN4C(=O)[C@@H](NC(C)=O)C(C)(C)C)c3C2=O)ccc1OC` [Compound A75, (2S,4R)-1-[(2S)-2-Acetamido-3,3-dimethylbutanoyl]-N-[(2-{[10-({2-[(1S)-1-(3-ethoxy-4-methoxyphenyl)-2-methanesulfonylethyl]-1,3-dioxo-2,3-dihydro-1H-isoindol-4-yl}-carbamoyl)decyl]oxy}-4-(4-methyl-1,3-thiazol-5-yl)phenyl)methyl]-4-hydroxypyrrolidine-2-carboxamide], the inhibition at 0.1 µM is at least 60% and the inhibition at 1 µM was at least 60%. On to `CCOc1cc([C@@H](CS(C)(=O)=O)N2C(=O)c3cccc(NC(=O)CCCCN4CCN(CC(=O)N[C@H](C(=O)N5C[C@H](O)C[C@H]5C(=O)NCc5ccc(-c6scnc6C)cc5)C(C)(C)C)CC4)c3C2=O)ccc1OC` [Compound A63, (2S,4R)-1-[(2S)-2-(2-{4-[4-({2-[(1S)-1-(3-Ethoxy-4-methoxyphenyl)-2-methanesulfonylethyl]-1,3-dioxo-2,3-dihydro-1H-isoindol-4-yl}carbamoyl)butyl]piperazin-1-yl}acet-amido)-3,3-dimethylbutanoyl]-4-hydroxy-N-{[4-(4-methyl-1,3-thiazol-5-yl)phenyl]methyl}-pyrrolidine-2-carboxamide], for which the inhibition at 0.1 µM was at least 60% and the inhibition at 1 µM is at least 60%.

As to `CCOc1cc([C@@H](CS(C)(=O)=O)N2C(=O)c3cccc(NCCCCCCCCCN4CCC(c5cc6c(cc5F)C(=O)N(C5CCC(=O)NC5=O)C6)CC4)c3C2=O)ccc1OC` (stereo partly drawn) [Compound A25, 4-[(9-{4-[2-(2,6-Dioxopiperidin-3-yl)-6-fluoro-1-oxo-2,3-dihydro-1H-isoindol-5-yl]piperidin-1-yl}nonyl)amino]-2-[(1S)-1-(3-ethoxy-4-methoxyphenyl)-2-methanesulfonylethyl]-2,3-dihydro-1H-isoindole-1,3-dione], the inhibition at 0.1 µM is at least 60% and the inhibition at 1 µM was at least 60%.

Take `CCOc1cc([C@@H](CS(C)(=O)=O)N2C(=O)c3cc(CCCN4CCC(c5cc(F)cc6c5CN(C5CCC(=O)NC5=O)C6=O)CC4)cc(NC(C)=O)c3C2=O)ccc1OC` (stereo partly drawn) [Compound A5, N-(6-(3-(4-(2-(2,6-Dioxopiperidin-3-yl)-6-fluoro-1-oxoisoindolin-4-yl)piperidin-1-yl)propyl)-2-((S)-1-(3-ethoxy-4-methoxyphenyl)-2-(methylsulfonyl)ethyl)-1,3-dioxoisoindolin-4-yl)acetamide]: the inhibition at 0.1 µM was at least 60%. As for `CCOc1cc([C@@H](CS(C)(=O)=O)N2C(=O)c3cccc(NC(=O)CCCCCCCCn4cc(-c5cc6c(cc5F)C(=O)N(C5CCC(=O)NC5=O)C6)nn4)c3C2=O)ccc1OC` (stereo partly drawn) [Compound A23, 9-{4-[2-(2,6-Dioxopiperidin-3-yl)-6-fluoro-1-oxo-2,3-dihydro-1H-isoindol-5-yl]-1H-1,2,3-triazol-1-yl}-N-{2-[(1S)-1-(3-ethoxy-4-methoxyphenyl)-2-methanesulfonylethyl]-1,3-dioxo-2,3-dihydro-1H-isoindol-4-yl}nonanamide], the inhibition at 0.1 µM was at least 60% and the inhibition at 1 µM was at least 60%. Take `CCOc1cc([C@@H](CS(C)(=O)=O)N2C(=O)c3cc(C#CCCCCCN4CCC(c5cc(F)cc6c5CN(C5CCC(=O)NC5=O)C6=O)CC4)cc(NC(C)=O)c3C2=O)ccc1OC` (stereo partly drawn) [Compound A2, N-(6-(7-(4-(2-(2,6-Dioxopiperidin-3-yl)-6-fluoro-1-oxoisoindolin-4-yl)-piperidin-1-yl)hept-1-yn-1-yl)-2-((S)-1-(3-ethoxy-4-methoxyphenyl)-2-(methylsulfonyl)ethyl)-1,3-dioxoisoindolin-4-yl)acetamide]: the inhibition at 0.1 µM is at least 60%. Regarding `CCOc1cc([C@@H](CS(C)(=O)=O)N2C(=O)c3cccc(NC(=O)CCCCCCCCN4CCC(c5ccc6c(c5)CN(C5CCC(=O)NC5=O)C6=O)CC4)c3C2=O)ccc1OC` (stereo partly drawn) [Compound A26, 9-{4-[2-(2,6-Dioxopiperidin-3-yl)-1-oxo-2,3-dihydro-1H-isoindol-5-yl]piperidin-1-yl}-N-{2-[(1S)-1-(3-ethoxy-4-methoxyphenyl)-2-methanesulfonylethyl]-1,3-dioxo-2,3-dihydro-1H-isoindol-4-yl}nonanamide], the inhibition at 0.1 µM is at least 60% and the inhibition at 1 µM was at least 60%. For `O=C1CCC(N2Cc3c(cc(F)cc3C3CCN(CCCCCCCCCOc4ccc(C(=O)Nc5c(Cl)cncc5Cl)cc4OCC4CC4)CC3)C2=O)C(=O)N1` (centres unmarked) [Compound B12, 3-(Cyclopropylmethoxy)-N-(3,5-dichloropyridin-4-yl)-4-((9-(4-(2-(2,6-dioxopiperidin-3-yl)-6-fluoro-1-oxoisoindolin-4-yl)piperidin-1-yl)nonyl)oxy)benzamide], the inhibition at 0.1 µM lay in the range of 20 to 40%. On to `CCOc1cc([C@@H](CS(C)(=O)=O)N2C(=O)c3cccc(NC(=O)CCCCNCc4ccc(OCc5scc6c5CN(C5CCC(=O)NC5=O)C6=O)cc4)c3C2=O)ccc1OC` (stereo partly drawn) [Compound A39, 5-((4-((5-(2,6-Dioxopiperidin-3-yl)-4-oxo-5,6-dihydro-4H-thieno[3,4-c]pyrrol-1-yl)methoxy)benzyl)amino)-N-(2-((S)-1-(3-ethoxy-4-methoxyphenyl)-2-(methylsulfonyl)ethyl)-1,3-dioxoisoindolin-4-yl)pentanamide], for which the inhibition at 0.1 µM is at least 60%.

For the molecule `CCOc1cc([C@@H](CS(C)(=O)=O)N2C(=O)c3cccc(NC(=O)CCCCCCCCOc4cc(-c5scnc5C)ccc4CNC(=O)[C@@H]4C[C@@H](O)CN4C(=O)[C@@H](NC(C)=O)C(C)(C)C)c3C2=O)ccc1OC` [Compound A74, (2S,4R)-1-[(2S)-2-Acetamido-3,3-dimethylbutanoyl]-N-[(2-{[8-({2-[(1S)-1-(3-ethoxy-4-methoxyphenyl)-2-methanesulfonylethyl]-1,3-dioxo-2,3-dihydro-1H-isoindol-4-yl}-carbamoyl)octyl]oxy}-4-(4-methyl-1,3-thiazol-5-yl)phenyl)methyl]-4-hydroxypyrrolidine-2-carboxamide], the inhibition at 0.1 µM is at least 60% and the inhibition at 1 µM was at least 60%.

The values above are taken from US20240124418A1 (BioTheryX, Inc., priority 2020, published 2024).
